Reference: ChEMBL document CHEMBL5653594, “ZD1839 (Iressa): an orally active inhibitor of epidermal growth factor signaling with potential for cancer therapy” (Cancer Res, 2002)

Legend:
A-431 [1] = assay: Antitumor activity against human A-431 cells xenografted in po dosed Swiss nu/nu mouse assessed as reduction in c-fos mRNA expression measured after 4 days by RT-PCR analysis; assay type: functional, organism-based; conditions: dose 12.5-200 mg/kg, time 4.0 day
A-431 [2] = assay: Antitumor activity against human A-431 cells xenografted in Swiss nu/nu mouse assessed as reduction in c-fos mRNA expression at 50 mg/kg measured after 36 hrs by RT-PCR analysis relative to control; assay type: functional; design: scale not given: the % may be the effect or the level left
A-431 [3] = assay: Antitumor activity against human A-431 cells xenografted in Swiss nu/nu mouse assessed as reduction in c-fos mRNA expression at 200 mg/kg measured after 36 hrs by RT-PCR analysis relative to control; assay type: functional; design: scale not given: the % may be the effect or the level left
A-431 [4] = assay: Antitumor activity against human A-431 cells xenografted in Swiss nu/nu mouse assessed as c-fos mRNA expression at 50 mg/kg measured after 6 to 36 hrs by RT-PCR analysis relative to control; assay type: functional; conditions: time 6-36 hrs

`COc1cc2ncnc(Nc3ccc(F)c(Cl)c3)c2cc1OCCCN1CCOCC1` [GEFITINIB] was tested, and the Activity (A-431 [1]) was “Dose-Dependent Effect”, the Activity (A-431 [2]) was 94% and the Activity (A-431 [3]) was over 99%. The Activity (A-431 [4]) was 5%.
